Test results taken from PubChem BioAssay (NCI).
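Results reflect a 48-hour exposure of cells in 96-well plates to compound at five concentrations. Abbreviation: GI50, concentration required for 50% inhibition of growth. TGI: total growth inhibition.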

Tests used:
Experiment in all cases: NCI tumour cell line growth inhibition, 48 h
DLD-1 colon = test system: DLD-1 colon
NCI-H226 lung = test system: NCI-H226 lung
SF-539 CNS = test system: SF-539 CNS
LXFL 529 NSCLC = test system: LXFL 529 NSCLC
SK-MEL-2 melanoma = test system: SK-MEL-2 melanoma
SK-MEL-28 melanoma = test system: SK-MEL-28 melanoma
IGROV1 ovarian = test system: IGROV1 ovarian
MALME-3M melanoma = test system: MALME-3M melanoma
SW-620 colon = test system: SW-620 colon
T-47D breast = test system: T-47D breast

Structure (SMILES)	TGI (DLD-1 colon) [µM]	TGI (NCI-H226 lung) [µM]	TGI (SF-539 CNS) [µM]	TGI (LXFL 529 NSCLC) [µM]	TGI (SK-MEL-2 melanoma) [µM]	TGI (SK-MEL-28 melanoma) [µM]	TGI (IGROV1 ovarian) [µM]	TGI (MALME-3M melanoma) [µM]	TGI (SW-620 colon) [µM]	TGI (T-47D breast) [µM]	GI50 (DLD-1 colon) [µM]	GI50 (NCI-H226 lung) [µM]	GI50 (SF-539 CNS) [µM]	GI50 (LXFL 529 NSCLC) [µM]	GI50 (SK-MEL-2 melanoma) [µM]	GI50 (SK-MEL-28 melanoma) [µM]	GI50 (IGROV1 ovarian) [µM]	GI50 (MALME-3M melanoma) [µM]	GI50 (SW-620 colon) [µM]
CNC1=C(C)C(=O)C(C)=C(C(C)(C)CC(=O)n2cc(F)c(=O)[nH]c2=O)C1=O	> 100	> 100	> 100	> 100	> 100	> 100	> 100	> 100	> 100	–	–	–	–	–	–	–	–	–	–
C#CCOCn1cnc2ncnc(Cl)c21	> 100	> 100	> 100	> 100	> 100	> 100	> 100	> 100	> 100	–	–	–	–	–	–	–	–	–	–
COc1cc(C)c(C(=O)/C=C/c2cc(OC)c(O)c(OC)c2)cc1O	35.1	–	93.1	40.3	38.8	41.4	85	36.9	70.8	–	–	–	–	–	–	–	–	–	–
CSc1nc2c(nc(N)n2C2OCC(O)C(O)C2O)c(=O)[nH]1 (stereo not drawn)	> 100	> 100	> 100	> 100	–	> 100	> 100	> 100	> 100	–	–	–	–	–	–	–	–	–	–
CC(=O)Nc1ccc(-c2nnc(SCC(=O)Nc3ccccc3[N+](=O)[O-])o2)cc1	> 100	> 100	> 100	> 100	> 100	> 100	> 100	> 100	> 100	–	–	–	–	–	–	–	–	–	–
O=C1c2cnccc2Cc2cccc3c2N1c1ccccc1S3	> 100	–	43.3	> 100	32.5	78.2	98.9	62.4	97.9	–	–	–	–	–	–	–	–	–	–
COc1cc(NCC(C#N)C#N)ccc1N=Nc1ccc([N+](=O)[O-])cc1	> 100	> 100	> 100	> 100	> 100	> 100	> 100	> 100	> 100	–	–	–	–	–	–	–	–	–	–
NNC(=O)CC(=O)Nc1ccccc1F	> 100	> 100	> 100	> 100	–	> 100	> 100	> 100	> 100	–	–	–	–	–	–	–	–	–	–
Cn1c2ccccc2c2cc(-c3ccccc3)c3c(c21)C(=O)C=CC3=O	27.7	76.7	58.3	18.6	49.9	40.2	64.9	40.2	33.4	49.9	–	–	–	–	–	–	–	–	–
COc1ccc2oc(-c3ccncc3)cc(=O)c2c1	> 100	> 100	–	> 100	> 100	> 100	> 100	> 100	–	–	–	–	–	–	–	–	–	–	–
CCC[CH2][Sn]1([CH2]CCC)[O]C(=O)C[S]1	2.78	3.77	3.43	1.55	2.33	2.69	4.16	2.52	3.13	–	1.29	1.93	1.64	0.312	0.975	1.35	1.86	1.14	0.984
COc1ccc(-c2cc(-c3ccccc3)c(C#N)c(=O)[nH]2)cc1	> 100	> 100	> 100	> 100	–	> 100	> 100	> 100	> 100	–	–	–	–	–	–	–	–	–	–
CC1SC2=NC3=C(c4ccccc4C3=O)C(c3ccc(Br)cc3)N2C1=O (stereo not drawn)	> 100	> 100	–	> 100	> 100	> 100	> 100	> 100	> 100	–	–	–	–	–	–	–	–	–	–
O=C1c2c(c3c4ccccc4n4c3c3c2c2ccccc2n3C/C=C\C4)C(=O)N1Cc1ccccc1	> 100	> 100	> 100	> 100	–	> 100	> 100	> 100	> 100	–	–	–	–	–	–	–	–	–	–
O=C(N/C(=C\c1ccc([N+](=O)[O-])cc1)c1nc2[nH]c(=S)[nH]c(=O)c2[nH]1)c1ccccc1	> 100	–	> 100	> 100	> 100	> 100	> 100	> 100	> 100	–	–	–	–	–	–	–	–	–	–
O=C(c1ccc(Cl)cc1)N(C(=S)N1CCN(c2ccccn2)CC1)c1ccccc1	> 100	> 100	> 100	> 100	> 100	> 100	> 100	> 100	> 100	–	–	–	–	–	–	–	–	–	–
CC(C)O/C=C1\C(=O)C2(SCCS2)[C@H]2CCCC[C@@H]12	> 100	> 100	> 100	> 100	> 100	> 100	> 100	> 100	> 100	–	–	–	–	–	–	–	–	–	–
CCOC(=O)CNC(SC)=C(C#N)C#N	> 100	> 100	> 100	> 100	–	–	> 100	> 100	> 100	–	–	–	–	–	–	–	–	–	–
Cc1cn(C2C=CC(=O)C(C)O2)c(=O)[nH]c1=O (stereo not drawn)	29.7	42.1	32.8	28.1	–	28.1	34.4	25.9	28.8	–	–	–	–	–	–	–	–	–	–
